Reference: patent US20260103458A1, “Inhibitors of CDK8 and CDK19” (University of Dundee, priority 2022, published 2026)

Tests used:
CDK19 = target: T1, CDK19 (Homo sapiens, UniProt Q9BWU1); assay: Kinase competition binding assay (Kd, qPCR readout), CDK19; conditions: in vitro binding; 11-point 3-fold dilution series; read-out: pKd (CDK19) (converted)
T1 construct: made in house; host or cells: E. coli BL21-derived host (T7 phage display) or HEK-293 cells
Protocol: (§1) Compounds 1 to 11 were tested for their in vitro binding activity against CDK8 and CDK19.
(§2) Kinase assays: Kinase-tagged T7 phage strains were prepared in an E. coli host derived from the BL21 strain. E. coli were grown to log-phase and infected with T7 phage and incubated with shaking at 32° C. until lysis. The lysates were centrifuged and filtered to remove cell debris. The remaining kinases were produced in HEK-293 cells and subsequently tagged with DNA for qPCR detection. Streptavidin-coated magnetic beads were treated with biotinylated small molecule ligands for 30 minutes at room temperature to generate affinity resins for kinase assays. The liganded beads were blocked with excess biotin and washed with blocking buffer (SeaBlock (Pierce), 1% BSA, 0.05% Tween 20, 1 mM DTT) to remove unbound ligand and to reduce non-specific binding. Binding reactions were assembled by combining kinases, liganded affinity beads, and test compounds in 1× binding buffer (20% SeaBlock, 0.17×PBS, 0.05% Tween 20, 6 mM DTT). Test compounds were prepared as 111× stocks in 100% DMSO. Kds were determined using an 11-point 3-fold compound dilution series with three DMSO control points. All compounds for Kd measurements are distributed by acoustic transfer (non-contact dispensing) in 100% DMSO. The compounds were then diluted directly into the assays such that the final concentration of DMSO was 0.9%. All reactions performed in polypropylene 384-well plate. Each was a final volume of 0.02 ml. The assay plates were incubated at room temperature with shaking for 1 hour and the affinity beads were washed with wash buffer (1×PBS, 0.05% Tween 20). The beads were then re-suspended in elution buffer (1×PBS, 0.05% Tween 20, 0.5 μM nonbiotinylated affinity ligand) and incubated at room temperature with shaking for 30 minutes. The kinase concentration in the eluates was measured by qPCR.
(§3) Compound handling: An 11-point 3-fold serial dilution of each test compound was prepared in 100% DMSO at 100× final test concentration and subsequently diluted to 1× in the assay (final DMSO concentration=1%). Most Kds were determined using a compound top concentration=30,000 nM. If the initial Kd determined was <0.5 nM (the lowest concentration tested), the measurement was repeated with a serial dilution starting at a lower top concentration.
(§4) Binding constants: Binding constants (Kds) were calculated with a standard dose-response curve using the Hill equation: […]
(§5) The Hill Slope was set to −1.
(§6) Curves were fitted using a non-linear least square fit with the Levenberg-Marquardt algorithm.

CDK8 = target: T2, CDK8 (Homo sapiens, UniProt P49336); assay: Kinase competition binding assay (Kd, qPCR readout), CDK8; conditions: in vitro binding; 11-point 3-fold dilution series; read-out: pKd (CDK8) (converted)
T2 construct: made in house; host or cells: E. coli BL21-derived host (T7 phage display) or HEK-293 cells
T2 sequence (P49336 whole entry): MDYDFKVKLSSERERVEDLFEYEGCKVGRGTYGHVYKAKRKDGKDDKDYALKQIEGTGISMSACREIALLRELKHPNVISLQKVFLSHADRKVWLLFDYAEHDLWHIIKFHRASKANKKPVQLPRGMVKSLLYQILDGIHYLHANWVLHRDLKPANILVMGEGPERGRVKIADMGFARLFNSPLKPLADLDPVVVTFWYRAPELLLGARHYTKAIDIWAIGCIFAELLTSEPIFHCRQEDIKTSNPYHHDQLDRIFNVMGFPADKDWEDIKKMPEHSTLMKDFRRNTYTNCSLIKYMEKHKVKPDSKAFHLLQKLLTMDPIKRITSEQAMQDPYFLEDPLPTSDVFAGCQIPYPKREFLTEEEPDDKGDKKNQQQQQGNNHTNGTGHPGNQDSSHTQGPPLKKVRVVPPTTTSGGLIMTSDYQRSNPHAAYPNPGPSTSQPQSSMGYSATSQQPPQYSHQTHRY
Protocol: as §1, §2, §3, §4, §5, §6

T1 sequence (Q9BWU1 whole entry): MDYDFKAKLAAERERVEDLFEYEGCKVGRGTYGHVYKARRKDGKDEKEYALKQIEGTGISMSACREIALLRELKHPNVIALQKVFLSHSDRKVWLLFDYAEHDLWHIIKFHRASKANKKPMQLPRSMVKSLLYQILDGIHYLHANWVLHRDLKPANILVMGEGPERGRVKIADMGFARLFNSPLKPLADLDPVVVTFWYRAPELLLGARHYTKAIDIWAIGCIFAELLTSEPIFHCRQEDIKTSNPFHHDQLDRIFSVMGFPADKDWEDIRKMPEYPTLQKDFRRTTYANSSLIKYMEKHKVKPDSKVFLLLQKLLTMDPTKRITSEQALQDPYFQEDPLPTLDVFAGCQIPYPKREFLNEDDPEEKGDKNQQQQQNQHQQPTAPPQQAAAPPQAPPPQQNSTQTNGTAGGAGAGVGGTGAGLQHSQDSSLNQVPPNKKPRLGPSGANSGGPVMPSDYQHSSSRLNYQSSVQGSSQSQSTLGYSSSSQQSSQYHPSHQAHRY

Row | Structure (SMILES) | Kd (CDK19) | Kd (CDK8)
1 | CNC1CCN(c2snc3ccccc23)CC1 [Compound 1, 1-(benzo[c]isothiazol-3-yl)-N-methylpiperidin-4-amine] | 31600 nM | 31600 nM
2 | CC(=O)NC1CCN(c2snc3ccccc23)CC1 [Compound 2, N-(1-(benzo[c]isothiazol-3-yl)piperidin-4-yl)acetamide] | 6310 nM | 10000 nM
3 | Cn1cnc(C(=O)NC2CCN(c3snc4ccccc34)CC2)c1 [Compound 3, N-(1-(benzo[c]isothiazol-3-yl)piperidin-4-yl)-1-methyl-1H-imidazole-4-carboxamide] | 158 nM | 398 nM
4 | Cn1cnc(C(=O)NC2CCN(c3snc4ccc(F)cc34)CC2)c1 [Compound 4, N-(1-(5-fluorobenzo[c]isothiazol-3-yl)piperidin-4-yl)-1-methyl-1H-imidazole-4-carboxamide] | 50.1 nM | 63.1 nM
5 | O=C(NC1CCN(c2snc3ccccc23)CC1)c1cn(Cc2cnccn2)cn1 [Compound 5, N-(1-(benzo[c]isothiazol-3-yl)piperidin-4-yl)-1-(pyrazin-2-ylmethyl)-1H-imidazole-4-carboxamide] | 79.4 nM | 200 nM

Second part, the compound after the results:

Row | Kd (CDK19) | Kd (CDK8) | Structure (SMILES)
6 | 20 nM | 25.1 nM | O=C(NC1CCN(c2snc3ccc(F)cc23)CC1)c1cn(Cc2cnccn2)cn1 [Compound 6, N-(1-(5-fluorobenzo[c]isothiazol-3-yl)piperidin-4-yl)-1-(pyrazin-2-ylmethyl)-1H-imidazole-4-carboxamide]
7 | 200 nM | 631 nM | CN(C)C(=O)Cn1cnc(C(=O)NC2CCN(c3snc4ccccc34)CC2)c1 [Compound 7, N-(1-(benzo[c]isothiazol-3-yl)piperidin-4-yl)-1-(2-(dimethylamino)-2-oxoethyl)-1H-imidazole-4-carboxamide]
8 | 316 nM | 501 nM | CN(C)C(=O)Cn1cnc(C(=O)NC2CCN(c3snc4ccc(F)cc34)CC2)c1 [Compound 8, 1-(2-(dimethylamino)-2-oxoethyl)-N-(1-(5-fluorobenzo[c]isothiazol-3-yl)piperidin-4-yl)-1H-imidazole-4-carboxamide]
9 | 1260 nM | 3980 nM | CN(C)CCn1cnc(C(=O)NC2CCN(c3snc4ccccc34)CC2)c1 [Compound 9, N-(1-(benzo[c]isothiazol-3-yl)piperidin-4-yl)-1-(2-(dimethylamino)ethyl)-1H-imidazole-4-carboxamide]
10 | 100 nM | 316 nM | O=C(NC1CCN(c2snc3ccccc23)CC1)c1cn(CC2COC2)cn1 [Compound 10, N-(1-(benzo[c]isothiazol-3-yl)piperidin-4-yl)-1-(oxetan-3-ylmethyl)-1H-imidazole-4-carboxamide]
11 | 100 nM | 501 nM | O=C(NC1CCN(c2snc3ccccc23)CC1)c1cn(Cc2ncccn2)cn1 [Compound 11, N-(1-(benzo[c]isothiazol-3-yl)piperidin-4-yl)-1-(pyrimidin-2-ylmethyl)-1H-imidazole-4-carboxamide]
